Measured values: PMC4210216, “Isolation, Purification and Molecular Mechanism of a Peanut Protein-Derived ACE-Inhibitory Peptide” (PLoS ONE, 2014)
No end group written: not given here.

Tests used:
[1] = system: spontaneously hypertensive rats (SHRs); experiment: Long-term antihypertensive activity in SHRs (28 days, SBP); format: in vivo, rat; settings: male SHR, captopril 40 mg/kg BW
Method: The in vivo tests for antihypertensive activity of peanut peptide was conducted using a previous method, and whole tests were conducted in Chinese Medicine Experiment Center of Hubei College of Traditional Chinese Medicine, authorized by SATCM (State Administration of Traditional Chinese Medicine, China). The male spontaneously hypertensive rats (SHRs) was used for the experimental model while the average weight of each rat was between 210 and 240 g and four rats were numbered as one group for feeding. These rats had free access to food and drink in their cages located in a 25°C room temperature with 12 h of light cycle. After 1 week for adaptation to this environment, the determination of blood pressure was conducted and the comparison of different group was investigated. The SHRs were randomly divided into five groups, named blank control group, low-dose group (100 mg/kg body weight (BW)), intermediate-dose group (500 mg/kg BW), high-dose group (1000 mg/kg BW) and drug control group (40 mg Captopril/kg BW).
Long-term antihypertensive activity: Through the same method of sample preparation, these SHRs were feeded at the same time (9∶00 am–10∶00 am) of each day and the feeding continued for 28 days. […] Each SHR was measured for three times. […]

[2] = molecular target: T1, ACE (protease from rabbit lung) (Oryctolagus cuniculus, UniProt P12822); experiment: ACE inhibiting activity (in vitro tests), HHL substrate, HPLC; format: biochemical; settings: HEPES pH 8.3, 37°C, 30 min
T1 construct: ACE (protease from rabbit lung); purchased Sigma Chemical Co., St. Louis, MO, USA; host or cells: rabbit lung (tissue-derived)
T1 sequence (P12822 34-1310): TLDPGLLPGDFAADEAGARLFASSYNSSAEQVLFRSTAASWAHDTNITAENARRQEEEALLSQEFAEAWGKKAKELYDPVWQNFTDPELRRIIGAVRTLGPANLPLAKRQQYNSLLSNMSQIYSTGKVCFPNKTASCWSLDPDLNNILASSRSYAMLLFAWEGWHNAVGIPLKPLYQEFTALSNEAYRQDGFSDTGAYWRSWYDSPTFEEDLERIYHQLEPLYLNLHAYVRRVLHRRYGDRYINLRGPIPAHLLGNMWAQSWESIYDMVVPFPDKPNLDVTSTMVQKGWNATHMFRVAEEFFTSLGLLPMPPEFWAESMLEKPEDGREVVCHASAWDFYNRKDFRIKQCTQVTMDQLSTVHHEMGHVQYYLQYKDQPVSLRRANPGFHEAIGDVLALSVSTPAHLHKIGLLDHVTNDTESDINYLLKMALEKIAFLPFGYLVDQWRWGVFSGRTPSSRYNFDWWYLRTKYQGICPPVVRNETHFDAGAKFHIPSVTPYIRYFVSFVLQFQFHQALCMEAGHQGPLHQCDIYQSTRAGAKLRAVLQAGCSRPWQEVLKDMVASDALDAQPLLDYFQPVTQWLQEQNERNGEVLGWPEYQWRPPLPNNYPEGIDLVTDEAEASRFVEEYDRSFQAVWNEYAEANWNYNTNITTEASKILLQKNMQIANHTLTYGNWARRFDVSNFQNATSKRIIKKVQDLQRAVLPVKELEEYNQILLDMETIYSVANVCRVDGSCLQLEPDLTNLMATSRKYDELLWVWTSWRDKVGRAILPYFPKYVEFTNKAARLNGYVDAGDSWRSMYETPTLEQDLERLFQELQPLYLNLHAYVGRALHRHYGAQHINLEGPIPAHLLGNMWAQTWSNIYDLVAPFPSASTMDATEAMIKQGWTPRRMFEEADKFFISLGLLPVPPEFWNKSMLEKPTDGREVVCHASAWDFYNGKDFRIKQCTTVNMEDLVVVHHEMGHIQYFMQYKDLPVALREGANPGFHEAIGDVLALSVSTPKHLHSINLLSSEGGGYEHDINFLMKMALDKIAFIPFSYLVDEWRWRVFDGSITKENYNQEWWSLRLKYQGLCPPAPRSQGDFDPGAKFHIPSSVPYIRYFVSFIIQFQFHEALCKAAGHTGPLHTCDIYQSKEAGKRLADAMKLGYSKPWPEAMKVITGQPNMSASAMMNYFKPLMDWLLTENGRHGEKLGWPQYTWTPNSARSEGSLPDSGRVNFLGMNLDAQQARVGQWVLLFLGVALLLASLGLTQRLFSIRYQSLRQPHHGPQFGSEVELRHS
From the text: PPI was purchased from Lanshan Group (Shandong, China). The following commercial enzymes were obtained: Alcalase (protease)-(Novo Industri A/S, Bagsvaerd, Denmark); N120P (protease)-(Kerry Co., Tralee, Ireland) and ACE (protease from rabbit lung)-(Sigma Chemical Co., St. Louis, MO, USA). Hippuryl-histidyl-leucine (HHL) was purchased from Sigma Chemical Co. (St. Louis, MO, USA). Methyl Cyanide (Merck & Co., Inc., Rahway, NJ, USA) and trifluoroacetic acid (TFA) (Fluka Co., Buchs, Switzerland) were purchased and were of chromatographic grade. All the other materials were of analytical grade and were used as received.
Determination of ACE inhibiting activity (in vitro tests)
ACE inhibiting activity was measured using Cushman and Cheung’s method with slight modification, [34]. Specifically, 20 µL of 4-hydroxyethylpiperazine ethane sulfonic acid (HEPEs) buffer solution (pH 8.3) was mixed with 20 µL sample solution in a 0.5 ml centrifuge tube. Then, 15 µL ACE solution was added into this tube and warmed at 37°C for 3 min. […]
The ACE inhibiting activity (%) was expressed in terms of hippuric acid content and was calculated using (1). […]
The dried peanut peptide powder having molecule weight below 1 kDa was first dissolved in water to make a peptide solution with 100 mg/ml concentration. […] The IC50 of each fraction was determined as in vitro tests.

ACE = system: ACE; set-up: method as in 3 sources, ref 52 = [52]; PMID 19886677; doi:10.1021/jf901787e; 52 Guang C , Phillips RD ( 2009 ) Purification, activity and sequence of angiotensin I converting enzyme inhibitory peptide from alcalase hydrolysate of peanut flour . Journal of agricultural and food ||| ref 43 = [43]; PMID 16680798; doi:10.1002/psc.758; 43 Li GH , Wan JZ , Le GW , Shi YH ( 2006 ) Novel angiotensin I-converting enzyme inhibitory peptides isolated from Alcalase hydrolysate of mung bean protein . Journal of Peptide Science 12 : 509 – 51 ||| ref 45 = [45]; 45 Li GH , Le GW , Shi YH , Shrestha S ( 2004 ) Angiotensin I–converting enzyme inhibitory peptides derived from food proteins and their physiological and pharmacological effects . Nutrition Research; settings: cited from earlier work; for mode of ACE inhibition: from human serum trypsin hydrolysate

## C[C@H](CS)C(=O)N1CCC[C@H]1C(=O)O [captopril]
[1]
  antihypertensive activity compared with peanut peptide, long term: stronger antihypertensive activity during the long term experiment

## KLYMRP [Fraction P8, Lys-Leu-Tyr-Met-Arg-Pro]
[2]; printed in parentheses beside the mg/mL value, read-out: IC50 (ACE inhibition)
  IC50: 6.42 µM
[2]; peptide concentration 100 µg/ml, HPLC UV 228 nm
  inhibition at 100 µg/mL: 85.8%

## Leu-Ile-Tyr
ACE
  mode of ACE inhibition: non-competitive

## Lys-Ala-Phe-Arg [peanut tetrapeptide of Guang and Phillips]
ACE; peanut tetrapeptide
  ACE inhibiting activity: 16.9 µg/mL

## VTPALR
ACE; from mung bean protein isolate using alcalase
  IC50: 82.4 µM

## YLYEIAR
ACE
  mode of ACE inhibition: non-competitive
